Measurements published in US5908868A, “Retinol derivatives useful for enhancing immune response” (priority 1995, dated 1999).

Legend:
[1] = system: 5/2 cells; test: Growth (DNA synthesis, [3H]thymidine) of lymphoblastoid 5/2 cells in serum-free medium; format: cell-based, human; details: for restoration of capacity to proliferate: ITLB medium without retinol
Method: Washed 5/2 cells (5,000/well) were incubated for 72 hours in HB101 medium with the indicated amounts of retinoids. DNA synthesis was measured by [^3 H] thymidine uptake. The measurements were done in triplicate. The SDs were <15%.
In FIGS. 4B to 4D, 5/2 cells were washed twice and seeded at a concentration of 150,000 cells/ml in HB 101 medium. Triplicate samples of 100 μl of cell suspension were removed daily and pulsed for 6 hours with [^3 H] thymidine. Means are shown. The SDs were never >20%.
P3 was purified as described in the Experimental Details section. 5/2 cells (5,000/well) were incubated for 72 hours in HB101 medium and refed with the indicated amount of retinoid daily. DNA synthesis was measured by [^3 H]-thymidine uptake. P3 is bioactive down to a concentration of 10-^8 M (FIG. 8). […] This is due either to chemical instability or to a more rapid metabolic degradation of P3 by the cells.
The assay was done in 96-well microtiter plates in a final volume of 200 ul/well. The cells were cultured for 72 hours and cell growth determined by [^3 H] thymidine (0.8 μCi/well)labeling for the last 16 hours. Retinoids were added at the indicated concentrations at the initiation of culture and every 24 hours thereafter.
The human EBV-transformed B-cell line 5/2 was established from the peripheral blood of a healthy donor. The cell line was grown in RPMI 1640 supplemented with 8% fetal calf serum, L-glutamine (2 mM), and antibiotics. The cell line was tested regularly for mycoplasma infections and was consistently negative.
The assay system is a modification of the assay developed by Blazar et al. (12). […] Assays were done in 96 well microtiter plates in a final volume of 200 μl/well or in 25 cm^2 tissue culture flasks. The cells in the microtiter plates were cultured for 72 hours and cell growth was determined by labeling for the last 16 hours with 0.8 μCi/well of [^3 H]thymidine (sp. act. 6.7 Ci/mmol). Growth in the culture flasks was determined in three aliquots of 100 μl taken at 24 hours intervals and cultured in the presence of 0.8 μCi of [^3 H]thymidine for an additional 6 hour period. To determine the viable cell number, nine aliquots per time point were differentially counted in a Neubauer chamber in the presence of trypan blue.
5/2 cells were grown in the absence of retinol in a medium containing the basic RPMI 1640 amino acid/salt mixture, insulin (5 μg/ml), transferrin (5 μg/ml), albumin (0.1%) and linoleic acid (10^-6 M) (ITLB). […] The dose-response curve shown in FIG. 26 indicates an effective concentration of 10^-7 M.

[2] = system: lymph node T cells; test: Proliferation of anti-CD3 activated lymph node T cells; format: cell-based, BALB/c mouse; details: anti-CD3
Excerpt: (§1) Growth curves of lymph node T cells depleted of antigen-presenting cells (FIG. 17A) with and without 10^-6 M retinol at 2×10^5 and 5×10^4 cells/well. (FIG. 17B) Dose-responses elicited by different retinoids in cultures of lymph node T cells depleted of antigen-presenting cells. Also shown are the growth curves of CD4^+ (FIG. 17C) and CD8^+ T lymphocytes (FIG. 17D) in the presence of either retinol, 14HRR, human serum or in their absence.
(§2) T lymphocytes, purified as described, 5×10^4 well, were activated with immobilized anti-CD3 antibody in ITLB medium. The indicated amounts of retinoids or human serum were added at initiation of cultures. […] 14HRR was added every 12 hours. DNA synthesis was measured by a 4 hour pulse with tritiated thymidine. SDs were ≤17%.
Mature T cells were obtained from pooled intestinal, axillary, inguinal and submandibular lymph nodes of 4 to 10-week-old BALB/c mice. To fractionate cells into CD4 and CD8 subsets and at the same time remove APC, a combination of adherence and complement lysis was used as follows:
Cells were cultured in serum-free medium, referred to as ITLB, containing RPMI 1640 supplemented with 8×10^-7 M insulin (5 μg/ml), 7×10^-8 M transferrin (5 μg/ml), 2×10^-6 M linoleic acid, 2×10^-6 M delipidated BSA (0.12 mg/ml), 2 mM L-glutamine, 1 mM sodium pyruvate and antibiotics. They were seeded into 96-well flat-bottom plates at varying cellular densities in a final volume of 100 μl. In control experiments, cells were cultured in medium containing 10% FCS or 3% human serum and 5×10^-5 M 2 ME. T cells and thymocytes were activated with immobilized, purified anti-mab CD3e or by the addition of Con A in the presence or absence of different concentrations of retinoids. Unless indicated otherwise, retinoids were replenished every 12 hours to maintain a reasonably constant concentration of these labile compounds in culture. The optimal concentration for stimulation of T cells was determined for each batch of anti-CD3 mAb and Con A. The optimal range of Con A was particularly narrow in serum-free medium (0.5-0.2 μg/ml) and varied with the cell density used. […] Cultures were carried out in duplicate. Plates were incubated at 37° C. in a humidified 5% CO2 atmosphere. Cellular proliferation was determined by [^3 H] thymidine uptake (0.5 uCi/well; New England Nuclear, Boston, Mass.) after the incubation times indicated for each experiment with a 4 hour labeling pulse. Cells were harvested onto glass filter and [^3 H]TdR incorporation was determined by liquid scintillation counting. The data presented are the means of duplicate or six replicate cultures. The restriction to duplicate measurements was necessary to conserve scarce 14HRR. They were within 20% of each other. Each experiment was repeated at least twice.

[3] = system: CD8+ T lymphocytes; test: Proliferation of anti-CD3 plus IL-2 activated CD8+ T lymphocytes; format: cell-based, BALB/c mouse
Excerpt: as §1, §2
The cell suspension in a volume of 2 ml was applied to a nylon wool column (40) (0.6 g of washed nylon fibers in the barrel of a 10 ml syringe) and incubated at 37° C. for 40 min. The non-adherent cells were recovered by washing with warm serum-free medium at a flow rate of 1 ml/min. […] The success of the enrichment procedures was monitored cytofluorimetrically using FITC-conjugated anti-CD8 and PE-conjugated anti-CD4. […]

[4] = system: blast cells (thymocytes); test: Flow cytometry phenotype of blast cells from activated thymocyte cultures; format: cell-based, BALB/c mouse; details: retinol- and 14HRR-supported cultures, data not shown
Method: To determine the phenotype of blast cells generated in the thymocyte cultures stimulated with immobilized anti-CD3 antibody and retinoids as well as the purity of CD4 and CD8 subsets isolated from pooled mouse lymph nodes, cells (10^5 -10^6 cells/sample), stained with FITC-conjugated anti-CD4 antibody and PE-conjugated anti-CD8 antibody, were analyzed by two-color flow cytometry with a FACScan. Dead cells were eliminated by forward low-angle scatter. Isotope controls were included in all experiments. To determine the phenotypes of activated thymocytes only blast cells were gated for collection and analysis.

Compound | support of 5/2 cell growth ([1]; HB101 medium) | restoration of capacity to proliferate [1] | stimulation of lymph node T cells [2] | response to activating signal [3] | CD4+ cells among blast cells [4] | CD8+ cells among blast cells [4] | minimal effective concentration ([1]; Homo sapiens, 72 h, HB101 medium, refed daily, read-out: bioactive down to a concentration) | need to replenish cultures ([1]; chemical instability or more rapid metabolic degradation)
CC1=C(/C=C/C(C)=C/C=C/C(C)=C/CO)C(C)(C)CCC1 [retinol, all-trans retinol] | enable 5/2 cells to grow | restores the capacity to proliferate | dependent on the presence of retinol | responded to the activating signal | ~70% | ~30% |  | 
CC(C=CC=C(C)C(O)CO)=CC=C1C(C)=CCCC1(C)C (centres unmarked) [14HRR, 14-hydroxy-4,14-retro-retinol] | active and capable of replacing retinol | restores the capacity to proliferate | effective over the same dose range as observed for thymocytes | responded to the activating signal | ~70% | ~30% | 0.01 µM | cultures have to be replenished daily
